Source: article PMC9571063 (Molecules, 2022)

What was measured:
[1] = target: T1, ABL1(F317I)-nonphosphorylated (Homo sapiens, UniProt P00519, F317I); experiment: KINOMEscan; assay type: binding; settings: read-out: Percent Control
T1 construct: purchased Eurofins DiscoverX KINOMEscan (scanMAX 468)

ALK(C1156Y) = target: T2, ALK(C1156Y) (Homo sapiens, UniProt Q9UM73, C1156Y); experiment: KINOMEscan; assay type: binding; settings: read-out: Percent Control
T2 construct: purchased Eurofins DiscoverX KINOMEscan (scanMAX 468)

CAMK2A = target: T3, CAMK2A (Homo sapiens, UniProt Q9UQM7); experiment: KINOMEscan; assay type: binding; settings: read-out: Percent Control
T3 construct: purchased Eurofins DiscoverX KINOMEscan (scanMAX 468)

CAMKK1 = target: T4, CAMKK1 (Homo sapiens, UniProt Q8N5S9); experiment: KINOMEscan; assay type: binding; settings: read-out: Percent Control
T4 construct: purchased Eurofins DiscoverX KINOMEscan (scanMAX 468)

CDK2 = target: T5, CDK2 (Homo sapiens, UniProt P24941); experiment: KINOMEscan; assay type: binding; settings: read-out: Percent Control
T5 construct: purchased Eurofins DiscoverX KINOMEscan (scanMAX 468)

CSNK1A1 = target: T6, CSNK1A1 (Homo sapiens, UniProt P48729); experiment: KINOMEscan; assay type: binding; settings: read-out: Percent Control
T6 construct: purchased Eurofins DiscoverX KINOMEscan (scanMAX 468)

DAPK3 = target: T7, DAPK3 (Homo sapiens, UniProt O43293); experiment: KINOMEscan; assay type: binding; settings: read-out: Percent Control
T7 construct: purchased Eurofins DiscoverX KINOMEscan (scanMAX 468)

DCAMKL3 = target: T8, DCAMKL3 (Homo sapiens, UniProt Q9C098); experiment: KINOMEscan; assay type: binding; settings: read-out: Percent Control
T8 construct: purchased Eurofins DiscoverX KINOMEscan (scanMAX 468)

DRAK1 = target: T9, DRAK1 (Homo sapiens, UniProt Q9UEE5); experiment: KINOMEscan; assay type: binding; settings: read-out: Percent Control
T9 construct: purchased Eurofins DiscoverX KINOMEscan (scanMAX 468)
T9 sequence (Q9UEE5 whole entry): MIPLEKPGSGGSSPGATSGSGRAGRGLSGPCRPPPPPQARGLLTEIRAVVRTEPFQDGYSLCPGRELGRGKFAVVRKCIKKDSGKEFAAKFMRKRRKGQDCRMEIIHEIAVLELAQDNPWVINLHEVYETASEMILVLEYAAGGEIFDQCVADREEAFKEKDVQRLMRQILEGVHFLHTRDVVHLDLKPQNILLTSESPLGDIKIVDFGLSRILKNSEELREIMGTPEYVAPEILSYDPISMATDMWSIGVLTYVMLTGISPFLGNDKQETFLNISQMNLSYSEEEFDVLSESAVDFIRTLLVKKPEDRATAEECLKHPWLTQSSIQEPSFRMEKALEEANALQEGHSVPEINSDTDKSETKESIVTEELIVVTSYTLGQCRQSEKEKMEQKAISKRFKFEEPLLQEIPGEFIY

EGFR(L858R,T790M) = target: T10, EGFR(L858R,T790M) (Homo sapiens, UniProt P00533, L858R/T790M); experiment: KINOMEscan; assay type: binding; settings: read-out: Percent Control
T10 construct: purchased Eurofins DiscoverX KINOMEscan (scanMAX 468)
T10 sequence (P00533 25-1210 T790M/L858R): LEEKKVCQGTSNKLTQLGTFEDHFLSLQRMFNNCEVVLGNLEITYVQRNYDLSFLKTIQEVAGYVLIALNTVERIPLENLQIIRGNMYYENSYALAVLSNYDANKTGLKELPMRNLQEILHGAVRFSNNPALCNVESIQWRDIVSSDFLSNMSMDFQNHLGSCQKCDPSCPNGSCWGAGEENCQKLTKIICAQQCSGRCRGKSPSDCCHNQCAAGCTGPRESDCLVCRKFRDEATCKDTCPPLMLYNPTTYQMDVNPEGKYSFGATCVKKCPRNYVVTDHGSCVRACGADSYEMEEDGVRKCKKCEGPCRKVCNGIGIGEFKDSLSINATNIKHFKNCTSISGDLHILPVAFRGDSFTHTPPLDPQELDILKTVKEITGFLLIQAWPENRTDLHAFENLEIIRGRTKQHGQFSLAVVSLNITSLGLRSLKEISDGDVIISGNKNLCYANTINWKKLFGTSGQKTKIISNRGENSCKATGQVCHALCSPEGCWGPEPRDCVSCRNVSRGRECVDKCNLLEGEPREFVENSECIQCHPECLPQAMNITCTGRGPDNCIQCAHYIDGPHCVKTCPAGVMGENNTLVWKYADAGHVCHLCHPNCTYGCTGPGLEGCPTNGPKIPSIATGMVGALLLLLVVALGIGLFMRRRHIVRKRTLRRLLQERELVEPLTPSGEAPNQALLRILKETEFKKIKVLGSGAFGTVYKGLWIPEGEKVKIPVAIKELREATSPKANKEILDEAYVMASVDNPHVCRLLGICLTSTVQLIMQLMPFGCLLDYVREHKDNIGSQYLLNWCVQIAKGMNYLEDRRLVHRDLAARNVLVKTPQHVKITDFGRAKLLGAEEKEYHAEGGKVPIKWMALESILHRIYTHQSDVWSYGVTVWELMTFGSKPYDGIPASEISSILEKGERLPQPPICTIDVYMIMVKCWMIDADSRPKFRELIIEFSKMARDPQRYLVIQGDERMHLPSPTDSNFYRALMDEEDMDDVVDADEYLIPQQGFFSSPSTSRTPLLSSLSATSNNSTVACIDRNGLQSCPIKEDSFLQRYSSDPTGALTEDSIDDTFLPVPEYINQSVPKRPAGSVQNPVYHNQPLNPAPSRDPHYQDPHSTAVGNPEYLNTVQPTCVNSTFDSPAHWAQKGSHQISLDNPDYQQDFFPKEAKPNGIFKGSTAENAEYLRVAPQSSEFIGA

EGFR(L861Q) = target: T11, EGFR(L861Q) (Homo sapiens, UniProt P00533, L861Q); experiment: KINOMEscan; assay type: binding; settings: read-out: Percent Control
T11 construct: purchased Eurofins DiscoverX KINOMEscan (scanMAX 468)

EPHA7 = target: T12, EPHA7 (Homo sapiens, UniProt Q15375); experiment: KINOMEscan; assay type: binding; settings: read-out: Percent Control
T12 construct: purchased Eurofins DiscoverX KINOMEscan (scanMAX 468)

EPHB2 = target: T13, EPHB2 (Homo sapiens, UniProt P29323); experiment: KINOMEscan; assay type: binding; settings: read-out: Percent Control
T13 construct: purchased Eurofins DiscoverX KINOMEscan (scanMAX 468)

FLT3(K663Q) = target: T14, FLT3(K663Q) (Homo sapiens, UniProt P36888, K663Q); experiment: KINOMEscan; assay type: binding; settings: read-out: Percent Control
T14 construct: purchased Eurofins DiscoverX KINOMEscan (scanMAX 468)

GRK4 = target: T15, GRK4 (Homo sapiens, UniProt P32298); experiment: KINOMEscan; assay type: binding; settings: read-out: Percent Control
T15 construct: purchased Eurofins DiscoverX KINOMEscan (scanMAX 468)

HASPIN = target: T16, HASPIN (Homo sapiens, UniProt Q8TF76); experiment: KINOMEscan; assay type: binding; settings: read-out: Percent Control
T16 construct: purchased Eurofins DiscoverX KINOMEscan (scanMAX 468)

IGF1R = target: T17, IGF1R (Homo sapiens, UniProt P08069); experiment: KINOMEscan; assay type: binding; settings: read-out: Percent Control
T17 construct: purchased Eurofins DiscoverX KINOMEscan (scanMAX 468)

INSR = target: T18, INSR (Homo sapiens, UniProt P06213); experiment: KINOMEscan; assay type: binding; settings: read-out: Percent Control
T18 construct: purchased Eurofins DiscoverX KINOMEscan (scanMAX 468)

IRAK3 = target: T19, IRAK3 (Homo sapiens, UniProt Q9Y616); experiment: KINOMEscan; assay type: binding; settings: read-out: Percent Control
T19 construct: purchased Eurofins DiscoverX KINOMEscan (scanMAX 468)

KIT = target: T20, KIT (Homo sapiens, UniProt P10721); experiment: KINOMEscan; assay type: binding; settings: read-out: Percent Control
T20 construct: purchased Eurofins DiscoverX KINOMEscan (scanMAX 468)
T20 sequence (P10721 26-976): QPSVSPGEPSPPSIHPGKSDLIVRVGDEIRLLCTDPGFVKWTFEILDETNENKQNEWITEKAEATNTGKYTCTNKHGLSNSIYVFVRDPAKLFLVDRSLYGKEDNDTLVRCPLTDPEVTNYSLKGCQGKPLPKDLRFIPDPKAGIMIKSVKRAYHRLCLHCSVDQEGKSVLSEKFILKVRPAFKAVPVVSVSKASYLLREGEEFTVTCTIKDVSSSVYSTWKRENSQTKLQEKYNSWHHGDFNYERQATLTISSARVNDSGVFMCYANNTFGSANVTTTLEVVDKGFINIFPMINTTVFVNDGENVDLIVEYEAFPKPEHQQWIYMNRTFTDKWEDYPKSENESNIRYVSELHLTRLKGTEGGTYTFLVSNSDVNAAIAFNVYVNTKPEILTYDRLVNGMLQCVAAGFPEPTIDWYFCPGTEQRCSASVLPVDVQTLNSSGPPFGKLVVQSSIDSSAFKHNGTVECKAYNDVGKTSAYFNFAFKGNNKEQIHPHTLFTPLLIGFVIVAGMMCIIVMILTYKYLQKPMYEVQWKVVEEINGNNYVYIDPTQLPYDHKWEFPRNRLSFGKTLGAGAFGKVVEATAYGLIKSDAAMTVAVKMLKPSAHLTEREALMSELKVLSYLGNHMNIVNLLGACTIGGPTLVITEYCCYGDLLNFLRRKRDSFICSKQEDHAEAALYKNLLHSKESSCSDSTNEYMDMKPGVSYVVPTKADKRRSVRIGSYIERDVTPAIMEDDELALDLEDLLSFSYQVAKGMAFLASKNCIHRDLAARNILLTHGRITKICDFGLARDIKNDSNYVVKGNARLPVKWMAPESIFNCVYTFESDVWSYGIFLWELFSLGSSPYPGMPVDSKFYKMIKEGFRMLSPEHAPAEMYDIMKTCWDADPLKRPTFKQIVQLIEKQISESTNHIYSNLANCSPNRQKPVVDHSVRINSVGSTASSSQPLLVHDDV

KIT(L576P) = target: T21, KIT(L576P) (Homo sapiens, UniProt P10721, L576P); experiment: KINOMEscan; assay type: binding; settings: read-out: Percent Control
T21 construct: purchased Eurofins DiscoverX KINOMEscan (scanMAX 468)
T21 sequence (P10721 26-976 L576P): as the sequence (P10721 26-976) above, with L551P counted along it

KIT(V559D) = target: T22, KIT(V559D) (Homo sapiens, UniProt P10721, V559D); experiment: KINOMEscan; assay type: binding; settings: read-out: Percent Control
T22 construct: purchased Eurofins DiscoverX KINOMEscan (scanMAX 468)
T22 sequence (P10721 26-976 V559D): as the sequence (P10721 26-976) above, with V534D counted along it

LYN = target: T23, LYN (Homo sapiens, UniProt P07948); experiment: KINOMEscan; assay type: binding; settings: read-out: Percent Control
T23 construct: purchased Eurofins DiscoverX KINOMEscan (scanMAX 468)

MAK = target: T24, MAK (Homo sapiens, UniProt P20794); experiment: KINOMEscan; assay type: binding; settings: read-out: Percent Control
T24 construct: purchased Eurofins DiscoverX KINOMEscan (scanMAX 468)

MAP3K2 = target: T25, MAP3K2 (Homo sapiens, UniProt Q9Y2U5); experiment: KINOMEscan; assay type: binding; settings: read-out: Percent Control
T25 construct: purchased Eurofins DiscoverX KINOMEscan (scanMAX 468)

MST3 = target: T26, MST3 (Homo sapiens, UniProt Q9Y6E0); experiment: KINOMEscan; assay type: binding; settings: read-out: Percent Control
T26 construct: purchased Eurofins DiscoverX KINOMEscan (scanMAX 468)

NEK11 = target: T27, NEK11 (Homo sapiens, UniProt Q8NG66); experiment: KINOMEscan; assay type: binding; settings: read-out: Percent Control
T27 construct: purchased Eurofins DiscoverX KINOMEscan (scanMAX 468)
T27 sequence (Q8NG66 whole entry): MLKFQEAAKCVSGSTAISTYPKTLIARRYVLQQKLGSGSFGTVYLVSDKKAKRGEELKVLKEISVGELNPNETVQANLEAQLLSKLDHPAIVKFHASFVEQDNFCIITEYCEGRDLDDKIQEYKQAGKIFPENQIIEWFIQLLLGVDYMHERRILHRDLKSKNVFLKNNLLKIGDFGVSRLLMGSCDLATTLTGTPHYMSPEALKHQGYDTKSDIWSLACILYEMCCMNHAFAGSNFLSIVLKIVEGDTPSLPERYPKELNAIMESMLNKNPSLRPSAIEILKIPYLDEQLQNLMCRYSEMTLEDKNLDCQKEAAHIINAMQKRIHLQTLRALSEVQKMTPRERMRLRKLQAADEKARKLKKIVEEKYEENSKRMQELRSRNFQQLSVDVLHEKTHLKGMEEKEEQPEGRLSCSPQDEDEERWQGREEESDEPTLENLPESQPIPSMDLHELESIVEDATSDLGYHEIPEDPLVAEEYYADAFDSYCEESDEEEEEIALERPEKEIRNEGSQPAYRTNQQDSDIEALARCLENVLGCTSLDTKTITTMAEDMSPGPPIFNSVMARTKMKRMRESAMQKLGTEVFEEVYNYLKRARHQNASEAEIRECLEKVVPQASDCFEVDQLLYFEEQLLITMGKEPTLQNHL

NLK = target: T28, NLK (Homo sapiens, UniProt Q9UBE8); experiment: KINOMEscan; assay type: binding; settings: read-out: Percent Control
T28 construct: purchased Eurofins DiscoverX KINOMEscan (scanMAX 468)

OSR1 = target: T29, OSR1 (Homo sapiens, UniProt O95747); experiment: KINOMEscan; assay type: binding; settings: read-out: Percent Control
T29 construct: purchased Eurofins DiscoverX KINOMEscan (scanMAX 468)

PAK2 = target: T30, PAK2 (Homo sapiens, UniProt Q13177); experiment: KINOMEscan; assay type: binding; settings: read-out: Percent Control
T30 construct: purchased Eurofins DiscoverX KINOMEscan (scanMAX 468)
T30 sequence (Q13177 whole entry): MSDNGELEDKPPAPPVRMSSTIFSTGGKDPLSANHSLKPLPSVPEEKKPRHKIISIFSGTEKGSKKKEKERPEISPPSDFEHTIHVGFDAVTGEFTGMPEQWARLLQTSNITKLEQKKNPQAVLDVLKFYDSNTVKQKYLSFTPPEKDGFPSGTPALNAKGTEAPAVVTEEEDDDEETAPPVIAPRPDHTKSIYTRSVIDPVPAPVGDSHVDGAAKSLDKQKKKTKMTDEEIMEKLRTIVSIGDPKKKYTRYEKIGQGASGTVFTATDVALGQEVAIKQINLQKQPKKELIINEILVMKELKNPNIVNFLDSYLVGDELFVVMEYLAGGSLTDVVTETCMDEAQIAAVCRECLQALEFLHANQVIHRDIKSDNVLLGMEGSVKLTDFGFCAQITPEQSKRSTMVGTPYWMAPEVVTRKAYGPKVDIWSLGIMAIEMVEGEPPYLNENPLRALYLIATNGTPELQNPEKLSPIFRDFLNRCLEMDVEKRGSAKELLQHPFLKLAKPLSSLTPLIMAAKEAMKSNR

PIK3CA = target: T31, PIK3CA (Homo sapiens, UniProt P42336); experiment: KINOMEscan; assay type: binding; settings: read-out: Percent Control
T31 construct: purchased Eurofins DiscoverX KINOMEscan (scanMAX 468)

PIM1 = target: T32, PIM1 (Homo sapiens, UniProt P11309); experiment: KINOMEscan; assay type: binding; settings: read-out: Percent Control
T32 construct: purchased Eurofins DiscoverX KINOMEscan (scanMAX 468)

PRKD3 = target: T33, PRKD3 (Homo sapiens, UniProt O94806); experiment: KINOMEscan; assay type: binding; settings: read-out: Percent Control
T33 construct: purchased Eurofins DiscoverX KINOMEscan (scanMAX 468)

[2] = target: T34, RSK1(Kin.Dom.1-N-terminal) (Homo sapiens, UniProt Q15418); experiment: KINOMEscan; assay type: binding; settings: read-out: Percent Control
T34 construct: RSK1(Kin.Dom.1-N-terminal); purchased Eurofins DiscoverX KINOMEscan (scanMAX 468)

[3] = target: T35, RSK1(Kin.Dom.2-C-terminal) (Homo sapiens, UniProt Q15418); experiment: KINOMEscan; assay type: binding; settings: read-out: Percent Control
T35 construct: RSK1(Kin.Dom.2-C-terminal); purchased Eurofins DiscoverX KINOMEscan (scanMAX 468)

S6K1 = target: T36, S6K1 (Homo sapiens, UniProt P23443); experiment: KINOMEscan; assay type: binding; settings: read-out: Percent Control
T36 construct: purchased Eurofins DiscoverX KINOMEscan (scanMAX 468)

SRPK3 = target: T37, SRPK3 (Homo sapiens, UniProt Q9UPE1); experiment: KINOMEscan; assay type: binding; settings: read-out: Percent Control
T37 construct: purchased Eurofins DiscoverX KINOMEscan (scanMAX 468)

TSSK1B = target: T38, TSSK1B (Homo sapiens, UniProt Q9BXA7); experiment: KINOMEscan; assay type: binding; settings: read-out: Percent Control
T38 construct: purchased Eurofins DiscoverX KINOMEscan (scanMAX 468)

YANK3 = target: T39, YANK3 (Homo sapiens, UniProt Q86UX6); experiment: KINOMEscan; assay type: binding; settings: read-out: Percent Control
T39 construct: purchased Eurofins (KINOMEscan, DiscoverX)

Human skin fibroblasts = tested on: Human skin fibroblasts; design: method as in ref 14 (a number printed in a supplementary file, which may have a reference list of its own: not looked up in the article's list); settings: DB18[a], footnote not given; read-out: Cytotoxic studies IC50 Fibroblasts; cited from earlier work

T1 sequence (P00519 whole entry F317I): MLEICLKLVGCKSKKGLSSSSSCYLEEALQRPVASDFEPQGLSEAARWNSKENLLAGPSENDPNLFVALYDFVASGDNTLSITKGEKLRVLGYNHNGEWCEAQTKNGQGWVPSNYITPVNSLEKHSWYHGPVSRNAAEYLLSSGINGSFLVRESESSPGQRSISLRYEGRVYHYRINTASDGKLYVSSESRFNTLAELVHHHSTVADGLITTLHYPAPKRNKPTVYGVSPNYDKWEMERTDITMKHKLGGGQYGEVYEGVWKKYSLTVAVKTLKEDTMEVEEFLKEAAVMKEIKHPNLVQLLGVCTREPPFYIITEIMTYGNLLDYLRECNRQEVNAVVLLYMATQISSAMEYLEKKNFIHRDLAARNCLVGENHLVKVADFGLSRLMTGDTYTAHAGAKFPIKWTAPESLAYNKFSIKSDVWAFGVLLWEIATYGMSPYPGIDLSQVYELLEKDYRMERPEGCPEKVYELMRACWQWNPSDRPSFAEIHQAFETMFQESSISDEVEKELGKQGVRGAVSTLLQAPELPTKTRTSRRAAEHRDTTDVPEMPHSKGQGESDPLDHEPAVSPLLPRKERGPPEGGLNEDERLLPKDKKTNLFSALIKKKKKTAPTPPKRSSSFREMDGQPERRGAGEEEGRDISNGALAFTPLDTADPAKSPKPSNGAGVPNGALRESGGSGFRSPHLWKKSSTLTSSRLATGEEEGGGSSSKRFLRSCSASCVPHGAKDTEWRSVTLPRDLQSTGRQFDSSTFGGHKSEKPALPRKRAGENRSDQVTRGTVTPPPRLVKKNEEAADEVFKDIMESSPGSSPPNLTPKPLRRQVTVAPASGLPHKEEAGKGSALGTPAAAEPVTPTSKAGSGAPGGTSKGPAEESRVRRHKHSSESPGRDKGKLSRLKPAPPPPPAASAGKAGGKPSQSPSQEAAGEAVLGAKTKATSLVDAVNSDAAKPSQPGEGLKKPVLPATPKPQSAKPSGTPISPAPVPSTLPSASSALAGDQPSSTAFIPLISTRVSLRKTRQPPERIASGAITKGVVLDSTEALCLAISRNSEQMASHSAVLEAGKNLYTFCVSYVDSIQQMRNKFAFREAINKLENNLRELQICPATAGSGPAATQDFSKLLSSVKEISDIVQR

Cc1ccc(-n2cc(COc3cccc4cnc(Nc5cccc(Cl)c5)nc34)nn2)c([N+](=O)[O-])c1 [DB18]
98%: remaining binding at 1 µM (DAPK3) | remaining binding at 1 µM [2]
87%: remaining binding at 1 µM (NLK)
93%: remaining binding at 1 µM (INSR) | remaining binding at 1 µM (LYN)
97%: remaining binding at 1 µM (MAP3K2)
99%: remaining binding at 1 µM (ALK(C1156Y)) | remaining binding at 1 µM (EGFR(L861Q))
96%: remaining binding at 1 µM (CAMK2A)
59%: remaining binding at 1 µM (IRAK3)
21 µM: IC50 (Human skin fibroblasts)
95%: remaining binding at 1 µM (PIK3CA)
72%: remaining binding at 1 µM (HASPIN)
100%: remaining binding at 1 µM [1] | remaining binding at 1 µM (CAMKK1) | remaining binding at 1 µM (CDK2) | remaining binding at 1 µM (DCAMKL3) | remaining binding at 1 µM (DRAK1) | remaining binding at 1 µM (EGFR(L858R,T790M)) | remaining binding at 1 µM (EPHA7) | remaining binding at 1 µM (EPHB2) | remaining binding at 1 µM (GRK4) | remaining binding at 1 µM (IGF1R) | remaining binding at 1 µM (KIT) | remaining binding at 1 µM (KIT(L576P)) | remaining binding at 1 µM (KIT(V559D)) | remaining binding at 1 µM (MAK) | remaining binding at 1 µM (MST3) | remaining binding at 1 µM (NEK11) | remaining binding at 1 µM (OSR1) | remaining binding at 1 µM (PAK2) | remaining binding at 1 µM (PIM1) | remaining binding at 1 µM (PRKD3) | remaining binding at 1 µM [3] | remaining binding at 1 µM (SRPK3) | remaining binding at 1 µM (TSSK1B) | remaining binding at 1 µM (YANK3)
69%: remaining binding at 1 µM (FLT3(K663Q))
94%: remaining binding at 1 µM (CSNK1A1) | remaining binding at 1 µM (S6K1)
